What all share (test): Antimicrobial susceptibility testing, MIC by microdilution broth method
What all share (type): cell-based
On the technique in general: Broth dilution looks for growth in wells or tubes with falling amounts of substance.

In test [1] the test system is Acinetobacter baumannii ATCC 17978. The settings on record: ATCC17978, Mueller-Hinton broth, 18-24 hours at 35-37° C., read-out: MIC. The method, then: (§1) Bacterial strains were obtained from the ATCC or CCUG culture collections or present in the authors' collection of clinical isolates. Compounds were re-suspended in dimethyl sulfoxyde (DMSO) at a final concentration of 10 mg/ml and subsequently diluted in the culture medium. The minimum inhibitory concentrations (MICs) of the compounds of the invention were determined using the microdilution broth method using Mueller-Hinton broth as recommended by the Clinical Laboratory Standards Institute (CLSI [11]). Bacterial inoculum was 5×10^4 CFU/well. MICs were recorded after 18-24 hours incubation at 35-37° C.

In test [2] the test system is Chryseobacterium meningosepticum CCUG 4310. The settings on record: Elizabethkingia meningoseptica, CCUG4310, Mueller-Hinton broth, 18-24 hours at 35-37° C., read-out: MIC. The procedure:
as §1

A further test concerns Escherichia coli CCUG^T. The settings on record: Mueller-Hinton broth, 18-24 hours at 35-37° C., read-out: MIC. The method, then:
as §1

Test [3] relates to Pseudomonas aeruginosa ATCC 27853. The settings on record: ATCC27853, Mueller-Hinton broth, 18-24 hours at 35-37° C., read-out: MIC. The method, then:
as §1

SMILES strings stand for the structures. ≈ marks a conversion by molar mass, not a printed value.

By MIC is commonly meant the lowest concentration found to suppress growth.

Take `N=C(N)NCCCCCCCCN(CCCCCCCCNC(=N)NCC1CC1)C(=O)N(CCCCCCCCNC(=N)N)CCCCCCCCNC(=N)NCC1CC1` [Compound 28, 1,3-bis(8-(3-(cyclopropylmethyl)guanidino)octyl)-1,3-bis(8-guanidinooctyl)urea]: the minimum inhibitory concentration (MIC) in test [1] stood at 4 µg/mL (≈ 4.73 µM); in test [2] it was 64 µg/mL (≈ 75.7 µM); with Escherichia coli CCUG^T it was 1 µg/mL (≈ 1.18 µM); in test [3], 4 µg/mL (≈ 4.73 µM).

The values are drawn from patent US10004702B2, “Linear guanidine derivatives, methods of preparation and uses thereof” (LEAD DISCOVERY SIENA S.R.L., priority 2014, dated 2018).
